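Growth conditions: 96-well plates. Treatment: test compound, 48 hours, 5 concentrations. Analysis: linear interpolation between bracketing concentrations; unreached endpoints set to highest concentration. GI50 is the concentration that inhibits growth by half.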 The source made the active and inactive calls. No stated cut-off is given here; in the data, active = GI50 up to about 1.1 µM and inactive = higher.
Columns and labels:
Assay in all cases: inhibition of tumour cell growth, NCI panel, 48 h
UACC-257 = test system: UACC-257
A549 = test system: A549
NCI/ADR-RES = test system: NCI/ADR-RES
DU-145 = test system: DU-145
SR = test system: SR
HL-60 = test system: HL-60
UACC-62 = test system: UACC-62
IGROV-1 = test system: IGROV-1
M14 = test system: M14
T47D = test system: T47D
SK-MEL-5 = test system: SK-MEL-5
MDA-MB-231 = test system: MDA-MB-231
CAKI-1 = test system: CAKI-1
SN12C = test system: SN12C
BT-549 = test system: BT-549
UO-31 = test system: UO-31
Hs-578T = test system: Hs-578T
KM12 = test system: KM12
MDA-MB-435 = test system: MDA-MB-435
NCI-H226 = test system: NCI-H226

Row | SMILES | GI50 (UACC-257) | GI50 (A549) | GI50 (NCI/ADR-RES) | GI50 (DU-145) | GI50 (SR) | GI50 (HL-60) | GI50 (UACC-62) | GI50 (IGROV-1) | GI50 (M14) | GI50 (T47D) | GI50 (SK-MEL-5) | GI50 (MDA-MB-231) | GI50 (CAKI-1) | GI50 (SN12C) | GI50 (BT-549) | GI50 (UO-31) | GI50 (Hs-578T) | GI50 (KM12) | GI50 (MDA-MB-435) | GI50 (NCI-H226)
1 | O=C(/C=C/c1ccc(O)c(O)c1)c1ccc(O)cc1O [BUTEIN] | 15.6 µM (inactive) | 25 µM (inactive) | 17.4 µM (inactive) | 9.1 µM (inactive) | 7.1 µM (inactive) | 3.29 µM (inactive) | 16.9 µM (inactive) | 15.2 µM (inactive) | 16.3 µM (inactive) | 14.4 µM (inactive) | 11.6 µM (inactive) | 15.8 µM (inactive) | 10.5 µM (inactive) | 14.5 µM (inactive) | 9.27 µM (inactive) | 14 µM (inactive) | 19.4 µM (inactive) | 10.2 µM (inactive) | 9.08 µM (inactive) | 17.3 µM (inactive)
2 | CC(C)NC(=O)OCc1c(COC(=O)NC(C)C)c(-c2ccc(Cl)c(Cl)c2)n2c1CCC2 | 49.7 µM (inactive) | 21.1 µM (inactive) | > 89.7 µM (inactive) | > 100 µM (inactive) | 6.37 µM (inactive) | 26.6 µM (inactive) | 39.8 µM (inactive) | 50 µM (inactive) | 35.9 µM (inactive) | 50.5 µM (inactive) | 24.9 µM (inactive) | 84.7 µM (inactive) | 20.9 µM (inactive) | 49.4 µM (inactive) | > 100 µM (inactive) | 45 µM (inactive) | > 97.5 µM (inactive) | 62.5 µM (inactive) | > 100 µM (inactive) | 28.1 µM (inactive)
3 | CC(=O)Nc1ccc2c(c1)C(=O)c1cccc(F)c1-2 | 97.5 µM (inactive) | 49.2 µM (inactive) | 48.2 µM (inactive) | 0.113 µM (active) | 19.9 µM (inactive) | > 100 µM (inactive) | 38 µM (inactive) | 20.1 µM (inactive) | 50.9 µM (inactive) | 24.9 µM (inactive) | 45.4 µM (inactive) | 30.4 µM (inactive) | 41.1 µM (inactive) | 42.2 µM (inactive) | 4.45 µM (inactive) | 21.2 µM (inactive) | 37.2 µM (inactive) | 0.401 µM (active) | > 100 µM (inactive) | 35.2 µM (inactive)
4 | COc1cccc(/C=C2\CCC(CN(C)C)C2=O)c1 (stereo not given) | 3.85 µM (inactive) | 19 µM (inactive) | 2.42 µM (inactive) | 2.74 µM (inactive) | 1.69 µM (inactive) | 0.638 µM (active) | 8.24 µM (inactive) | 8.47 µM (inactive) | 3.6 µM (inactive) | 2.76 µM (inactive) | 9.82 µM (inactive) | 4.66 µM (inactive) | 6.76 µM (inactive) | 5.71 µM (inactive) | 3.91 µM (inactive) | 9.51 µM (inactive) | 8.71 µM (inactive) | 4.11 µM (inactive) | 2.61 µM (inactive) | 16.3 µM (inactive)
5 | O=S(=O)(O)c1cccc2cccc(/N=N/c3c(O)ccc4ccccc34)c12 | > 100 µM (inactive) | > 100 µM (inactive) | > 100 µM (inactive) | > 100 µM (inactive) | > 100 µM (inactive) | > 100 µM (inactive) | > 100 µM (inactive) | 31.9 µM (inactive) | > 100 µM (inactive) | > 100 µM (inactive) | > 100 µM (inactive) | > 100 µM (inactive) | > 100 µM (inactive) | > 100 µM (inactive) | > 100 µM (inactive) | > 100 µM (inactive) | > 100 µM (inactive) | > 100 µM (inactive) | > 100 µM (inactive) | > 100 µM (inactive)
